Counter-ions that a name gives are not always drawn. Marks after values point to notes of the source that are not given here.
Key:
[1] = system: cerebral energy state in KCN-induced anoxia mice; experiment: Cerebral energy state in KCN-induced anoxia mice; type: in vivo; conditions: brain, p<0.01 vs. control; for ADP / AMP / ATP / Glucose / Lactate / P-creatine: Compound A i.p.; for ECP (Energy charge potential): ECP = ATP + 0.5xADP / ATP + ADP + AMP
Experimental: Male ddY-mice weighing 22-26 g were used. Compound A was dissolved in 0.5 % methylcellulose solution and injected intraperitoneally. After administration, 2.5 mg/kg of KCN in saline was injected intravenously. The animals were frozen in liquid nitrogen at 30 or 120 seconds laterm After removing and weighing, the frozen cerebrums were powdered.
According to the procedure by Lowry, O. H. et al described in "A flexible system of enzymatic analysis" (Academic press 1978) or by Yasuda et al described in Arch. Int. Pharmacodyn., vol. 242, p. 77-85 (1979), contents of Phosphocreatine (P-creatine), ATP, ADP, AMP, glucose and lactate in brain were determined. Concentrations (µ moles/g of brain) were calculated. Student's t-test was used in the statical analysis of the results.

[2] = system: KCN-induced mortality; experiment: KCN-induced mortality; type: in vivo, mice; conditions: 30 mg/kg i.p. 30 minutes before KCN 2.5 mg/kg i.v.
[3] = system: ECS; experiment: Electroconvulsive shock (ECS) induced amnesia, one trial step-through passive avoidance response; type: in vivo, mice; conditions: ECS-induced amnesia (30 mA, 0.5 seconds); 5 mg/kg i.p. immediately after ECS; test 24 hours after training; mean ± standard error; p<0.05 vs. ECS-vehicle control
Excerpt: (§1) Male ddY-mice, weighing 19-25 g were used. The test apparatus consisted of a two-compartment avoidance box with a large 10x23x20 cm compartment illuminated by a 40W bulb, and a. small 14x14x20 cm shock compartment, painted black, with a floor made of metal rods 6 mm apart through which a foot shock (FS, 0.25 mA, 2 seconds) could be delivered. The two compartments were separated by a guillotine door.
(§2) The training procedure consisted of placing the mouse in the center of the large compartment. Within 20 to 50 seconds the animal entered the small compartment and was immediately given FS, and removed from the compartment. The animals were exposed to C02 for 8 seconds or given an electroconvulsive shock (ECS, 30 mA, 0.5 seconds) immediately after FS, or were injected with an amnestic agent scopolamine (SCO, 3 mg/kg i.p.) 20 minutes before FS.
(§3) The testing procedure consisted of placing the animal in the large compartment as above and noting the latency to enter the dark compartment up to 600 seconds. The training-to-test interval was 24 hours. Compound A or vehicle (0.5 % methylcellulose) was injected intraperitoneally immediately after exposure to C02 or ECS. For the scopolamine induced amnesia model, they were injected intraperitoneally immediately after FS. Thirty mice were used per test group.

[4] = Acute toxicity in rats; conditions: rat, in vivo, po, one week-observation
Experimental: (§4) Compound A was orally administered to male Wistar-rats weighing about 200 g and male ddY-mice weighing 20-25 g. After one week-observation, the LD50 value (mg/kg) was measured.

[5] = system: normabaric hypoxia; experiment: Normobaric hypoxia, time to respiratory failure; type: in vivo, mice; conditions: 30 mg/kg i.p., nitrogen and oxygen (96:4), mean ± standard error, p<0.01 vs. control
Experimental: The experiment was performed according to the method by Yasuda et al described in Arch. Int. Pharmacolodyn., vol. 233, p. 136-144 (1978).
Three male ddY-mice were introduced into a 300 ml glass container in which circulated a current of a gas mixture of nitrogen and oxygen (96:4) at the rate of about 51/minutes. The time to respiratory failure was recorded.

[6] = system: KCN-induced coma; experiment: KCN-induced coma, recovery of righting reflex; type: in vivo, mice; conditions: values are log t, 10 mg/kg i.p. 30 minutes prior to KCN 1.8 mg/kg i.v., p<0.01 vs. control
Experimental: Male dd-mice were intraperitoneally injected with Compound A 30 minutes prior to the intravenous injection of 1.8 mg/kg of KCN-saline solution. The time to recovery of righting reflex, coma time, was determined.

[7] = Acute toxicity in mice; conditions: mouse, in vivo, po, one week-observation
Experimental: as §4

[8] = system: 2-deoxy-D-glucose uptake into rat brain; experiment: Chronic administration, 2-deoxy-D-glucose uptake into rat brain; type: in vivo; conditions: 10 mg/kg i.p. once daily for 14 days; for dpm/mg tissue dpm/µl serum: 3H-2-deoxy-D-glucose 27 hours after last administration, mean ± standard error, p<0.05 vs. control; for dpm/mg tissue dpm/µl serum (Δ%): change vs. control
Experimental: 2-deoxy-D-glucose uptake into rat brain Compound A was administered intraperitoneally to male Wistar-rat once daily for 14 days. ^3H-2-deoxy-D-glucose (40 µCi/kg, i.p.) was injected to rats 27 hours after the last administration of Compound A. Fifteen minuts after the injection of 3H-2-deoxy-D-glucose, the animals were decapitated and blood from trunk was collected simultaneously. The brains were dissected into five regions. Radioactivity in the brain sample and serum was counted using Soluene-350 and toluene scintillator. […] Each value represents the mean ± standard error.

[9] = system: CO2-induced amnesia; experiment: CO2-induced amnesia, one trial step-through passive avoidance response; type: in vivo, mice; conditions: 5 mg/kg i.p. immediately after CO2, test 24 hours after training, up to 600 seconds, mean ± standard error, p<0.01 vs. CO2-vehicle control
Excerpt: as §1, §2, §3

[10] = system: scopolamine induced amnesia; experiment: Scopolamine induced amnesia, one trial step-through passive avoidance response; type: in vivo, mice; conditions: scopolamine (3 mg/kg i.p.) induced amnesia; 5 mg/kg i.p. immediately after foot shock; test 24 hours after training; mean ± standard error; p<0.05 vs. SCO-vehicle control
Excerpt: as §1, §2, §3

[11] = 30 sec. after KCN 2.5mg/kg i.v.
[12] = 120 sec. after KCN 2.5mg/kg i.v.

## c1csc(Cc2ccccc2OCC2CNCCO2)c1 (stereo not drawn) [Compound A, 2-(2-(2-thienylmethyl)phenoxymetyl)morpholine maleate]
[1]; [11]
  ADP: 0.599 ± 0.020 µmol/g of wet tissue
  AMP: 0.107 ± 0.009 µmol/g of wet tissue
  ATP: 2.62 ± 0.07 µmol/g of wet tissue
  Glucose: 1.25 ± 0.11 µmol/g of wet tissue
  Lactate: 4.92 ± 0.17 µmol/g of wet tissue
  P-creatine: 2.52 ± 0.13 µmol/g of wet tissue
  ECP (Energy charge potential): 0.880 ± 0.004
[1]; [12]
  ADP: 0.509 ± 0.023 µmol/g of wet tissue
  AMP: 0.044 ± 0.005 µmol/g of wet tissue
  ATP: 2.60 ± 0.02 µmol/g of wet tissue
  Glucose: 0.64 ± 0.04 µmol/g of wet tissue
  Lactate: 7.42 ± 0.42 µmol/g of wet tissue
  P-creatine: 2.40 ± 0.09 µmol/g of wet tissue
  ECP (Energy charge potential): 0.905 ± 0.004
[2]
  Lethality: 0
[2]; p<0.01 vs. control
  Survival animals/ animals used: 10/10**
[3]
  Latency: 357.5 ± 46.5 s
[4]
  LD50 at 168 h: 1710 mg/kg
[5]
  Survival time: 3.87 ± 0.32 min
[6]
  Coma time (sec.) (log t ± S.E.): 1.95 ± 0.039 sec.
[7]
  LD50 at 168 h: 716 mg/kg
[8]; Hippocampus
  dpm/mg tissue dpm/µl serum: 0.90 ± 0.07
  dpm/mg tissue dpm/µl serum (Δ%): +20%
[8]; Parietal cortex
  dpm/mg tissue dpm/µl serum: 1.27 ± 0.11
  dpm/mg tissue dpm/µl serum (Δ%): +21%
[9]
  Latency: 324.5 ± 37.1 s
[10]
  Latency: 169.6 ± 26.7 s
